Biological target: Serine/threonine-protein kinase PLK1 (Homo sapiens, UniProt P53350)
Sequence (P53350 whole entry): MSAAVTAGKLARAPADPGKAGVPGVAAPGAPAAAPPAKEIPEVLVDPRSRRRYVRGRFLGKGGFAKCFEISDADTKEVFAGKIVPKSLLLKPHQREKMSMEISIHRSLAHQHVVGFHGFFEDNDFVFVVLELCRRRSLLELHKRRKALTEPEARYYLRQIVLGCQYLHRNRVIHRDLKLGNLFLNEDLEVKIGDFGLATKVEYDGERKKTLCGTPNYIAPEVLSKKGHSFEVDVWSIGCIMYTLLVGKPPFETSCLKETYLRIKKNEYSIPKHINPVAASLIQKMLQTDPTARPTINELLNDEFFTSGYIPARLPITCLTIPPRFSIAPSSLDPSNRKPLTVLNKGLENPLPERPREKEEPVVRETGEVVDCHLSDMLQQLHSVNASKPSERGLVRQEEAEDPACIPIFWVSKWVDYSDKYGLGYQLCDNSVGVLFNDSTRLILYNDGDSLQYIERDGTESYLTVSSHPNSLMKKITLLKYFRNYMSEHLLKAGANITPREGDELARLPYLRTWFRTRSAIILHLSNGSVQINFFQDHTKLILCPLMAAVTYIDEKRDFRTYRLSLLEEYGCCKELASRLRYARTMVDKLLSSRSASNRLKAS

IC50: 720 nM
SMILES: Cc1cc(NC(=O)Nc2ncc(CCNc3cc(Nc4nnc[nH]4)ncn3)s2)c(C(F)(F)F)o1

From ChEMBL document CHEMBL1156260, “Through the "gatekeeper door": exploiting the active kinase conformation” (J Med Chem, 2010)
